From patent US5508277A, “Bicyclic pyrimidines” (Adir Et Compagnie, priority 1992, dated 1996)

Columns and labels:
[1] = tested on: P388/VCR (murine leukaemia resistant to vincristine); experiment: Increase in the anti-tumour activity of vincristine in vivo, compounds administered p.o.; parameters: species or system mice (female B6D2F1); conditions: 100 mg/kg p.o., days 1, 2, 3 and 4; + vincristine 0.25 mg/kg i.p.
Description: (§1) The sensitive parent line P388 (murine leukaemia) and the sub-line resistant to vincristine, P388/VCR, were supplied by NCI (Frederick, USA). The tumour cells (10^6 cells) were inoculated on day 0 into the intraperitoneal cavity of female B6D2F1 mice (Iffa Credo, France) weighing from 18 to 20 g (groups of 8 to 10 animals). In the case of i.p. administration of the compounds to be tested, the animals received on days 1, 5 and 9:
In the case of p.o. administration of the compounds to be tested, the animals received on days 1, 2, 3 and 4:
an administration by the oral route of 100 mg/kg of the compound of the present invention to be tested, then
30 to 60 minutes later, an administration by the i.p. route of 0.25 mg/kg of vincristine.
The anti-tumour activity is expressed as follows: [formula]
The activity of the reversing compound is expressed as T/V: [formula]

DC-3F/AD cells = experiment: Cytotoxicity of actinomycin D, reversal of MDR (reversion factor), Microculture Tetrazolium Assay; type: cell-based, Chinese hamster; conditions: compound at 5 μM, with actinomycin D, 4 days
Method: Two resistant cell lines were used:
The cells are distributed on microplates and exposed to the cytotoxic compound (actinomycin D or adriamycin) at 9 concentrations (2 by 2 series dilutions). The compounds tested for their capacity to reverse MDR are added at the same time as the cytotoxic agent. The cells are then incubated for 4 days. […] The results are expressed as a reversion factor (RF): [formula]

[2] = tested on: P388/VCR (murine leukaemia resistant to vincristine); experiment: Increase in the anti-tumour activity of vincristine in vivo, compounds administered i.p.; parameters: species or system mice (female B6D2F1); conditions: for increase in anti-tumour activity of vincristine (in words): administered i.p., resistant tumour
Method: as §1, with “9: administration by the i.p. route of 25, 50 or 75 mg/kg of the compound of the present invention to be tested, then 30 to 60 minutes later, an administration by the i.p. route of 0.50 mg/kg of vincristine (used as a reference anti-tumour agent). The anti-tumour activity is expressed as follows: [formula] The activity of the reversing compound is expressed as T/V: [formula]” for “9:”

[3] = 25 mg/kg i.p., days 1, 5 and 9, + vincristine 0.50 mg/kg i.p.
[4] = 50 mg/kg i.p., days 1, 5 and 9, + vincristine 0.50 mg/kg i.p.
[5] = 75 mg/kg i.p., days 1, 5 and 9, + vincristine 0.50 mg/kg i.p.
[6] = VCR only, 0.50 mg/kg i.p., no compound

C=CCNc1nc(N2CCC(NC3c4ccccc4N(C)S(=O)(=O)c4cc(Cl)ccc43)CC2)nc2c1ncn2CC=C (single isomer, unassigned) [Example 15, (+)--(R)-- or --(S)-9-allyl-6-allylamino-2-{4-[(3-chloro-6-methyl-5,5-dioxo-6,11-dihydrodibenzo[c,f][1,2]thiazepin-11-yl)amino]piperidino)purine]
T/C [1]: 157

C=CCNc1nc(N2CCC(NCC3c4ccccc4CCc4ccccc43)CC2)nc2c1ncn2CC=C [Example 1, 9-allyl-6-allylamino-2-{4-[(10,11-dihydro-5H-dibenzo-[a,d]cyclohepten-5-yl)methylamino]piperidino}purine]
REVERSION FACTOR 5 μM DC-3F/AD (DC-3F/AD cells): 5173
T/C [1]: 209
T/C % [2, 3]: 215%
T/V [2, 3]: 1.54
T/C % [2, 4]: 239%
T/V [2, 4]: 1.71
T/C % [2, 5]: 176%
T/V [2, 5]: 1.26
increase in anti-tumour activity of vincristine (in words) [2]: substantially increase the anti-tumour activity of vincristine against a resistant tumour

C=CCNc1nc(N2CCC(NCC3c4ccccc4CCc4ccccc43)CC2)c2ncn(CC=C)c2n1 [Example 2, 9-allyl-2-allylamino-6-{4-[(10,11-dihydro-5H-dibenzo-[a,d]cyclohepten-5-yl)methylamino]piperidino}purine]
REVERSION FACTOR 5 μM DC-3F/AD (DC-3F/AD cells): 3368
T/C [1]: 172
T/C % [2, 3]: 192%
T/V [2, 3]: 1.37
T/C % [2, 4]: 224%
T/V [2, 4]: 1.60
T/C % [2, 5]: 235%
T/V [2, 5]: 1.68
increase in anti-tumour activity of vincristine (in words) [2]: substantially increase the anti-tumour activity of vincristine against a resistant tumour

C=CCNc1nc(N2CCC(NCC(c3ccc(F)cc3)c3ccc(F)cc3)CC2)nc2c1ncn2CC=C [Example 3, 9-allyl-6-allylamino-2-{4-[2,2-bis(4-fluorophenyl)-ethylamino]piperidino}purine]
T/C [1]: 203

C=CCNc1nc(N2CCC(NCC3c4ccccc4COc4ccccc43)CC2)nc2c1ncn2CC=C (stereo not shown) [Example 5, 9-allyl-6-allylamino-2-{4-[(6,11-dihydrodibenzo[b,e]-oxepin-11-yl)methylamino]piperidino}purine]
T/C [1]: 196

C=CCNc1nc(N2CCC(NCC3c4ccccc4C=Cc4ccccc43)CC2)nc2c1ncn2CC=C [Example 6, 9-allyl-6-allylamino-2-{4-[(5H-dibenzo[a,d]cyclohepten-5-yl)methylamino]piperidino}purine]
T/C [1]: 188

C=CCNc1nc(N2CCC(NCC3c4ccccc4CCc4ccccc43)CC2)nc2c1cnn2CC=C [Example 9, 1-allyl-4-allylamino-6-{4-[(10,11-dihydro-5H-dibenzo[a,d]cyclohepten-5-yl)methylamino]piperidino}pyrazolo[3,4-d]pyrimidine]
T/C [1]: 161

C=CCNc1nc(N2CCC(NCC(c3ccccc3)c3ccccc3)CC2)nc2c1ncn2CC=C [Example 12, 9-allyl-6-allylamino-2-{4-[(2,2-diphenylethyl)amino]piperidino}purine]
T/C [1]: 192

C=CCNc1nc(N2CCC(NCC3c4ccccc4CCc4cc(OC)ccc43)CC2)nc2c1ncn2CC=C (stereo not shown) [Example 14, 9-allyl-6-allylamino-2-{4-[(2-methoxy-10,11-dihydro-5H-dibenzo[a,d]cyclohepten-5-yl)methylamino]piperidino}purine]
T/C [1]: 202

CC[C@]1(O)C[C@H]2CN(CCc3c([nH]c4ccccc34)[C@@](C(=O)OC)(c3cc4c(cc3OC)N(C=O)[C@H]3[C@@](O)(C(=O)OC)[C@H](OC(C)=O)[C@]5(CC)C=CCN6CC[C@]43[C@@H]65)C2)C1 [VCR, vincristine, reference compound]
T/C % [2, 6]: 140%
T/V [2, 6]: 1

COc1ccc(CCN(C)CCCC(C#N)(c2ccc(OC)c(OC)c2)C(C)C)cc1OC (stereo not shown) [verapamil, reference compound]
REVERSION FACTOR 5 μM DC-3F/AD (DC-3F/AD cells): 3
